Experimental data reported in ChEMBL document CHEMBL5260832, “Hepatoprotective natural triterpenoids” (Eur J Med Chem, 2018).

System: Hepatocyte
Test: Hepatoprotective activity against D-GaIN/LPS induced liver injury in rat hepatocytes assessed as cell death at 10 to 500 uM relative to control
Type: functional
Details: dose 10-500 µM

Structure (SMILES) | Activity
C[C@@H]1O[C@@H](O[C@H]2[C@H](O[C@H]3[C@H](O[C@H]4CC[C@@]5(C)[C@@H](CC[C@]6(C)[C@@H]5CC=C5[C@@H]7C[C@@](C)(CO[C@@H]8O[C@H](CO)[C@@H](O)[C@H](O)[C@H]8O)C[C@@H](O)[C@]7(C)CC[C@]56C)[C@@]4(C)CO)O[C@H](C(=O)O)[C@@H](O)[C@@H]3O)O[C@H](CO)[C@H](O)[C@@H]2O)[C@H](O)[C@H](O)[C@H]1O | 0%
C[C@@H]1O[C@@H](O[C@H]2[C@H](O[C@H]3[C@H](O[C@H]4CC[C@@]5(C)[C@@H](CC[C@]6(C)[C@@H]5CC=C5[C@@H]7CC(C)(C)C[C@@H](O)[C@]7(C)CC[C@]56C)[C@@]4(C)CO)O[C@H](C(=O)O)[C@@H](O)[C@@H]3O)OC[C@@H](O)[C@@H]2O)[C@H](O)[C@H](O)[C@H]1O | 0%
C[C@@H]1O[C@@H](O[C@H]2[C@H](O[C@H]3[C@H](O[C@H]4CC[C@@]5(C)[C@@H](CC[C@]6(C)[C@@H]5CC=C5[C@@H]7CC(C)(C)CC(=O)[C@]7(C)CC[C@]56C)[C@@]4(C)CO)O[C@H](C(=O)O)[C@@H](O)[C@@H]3O)O[C@H](CO)[C@H](O)[C@@H]2O)[C@H](O)[C@H](O)[C@H]1O | 0%
C[C@@H]1O[C@@H](O[C@H]2[C@H](O[C@H]3[C@H](O[C@H]4CC[C@@]5(C)[C@@H](CC[C@]6(C)[C@@H]5CC=C5[C@@H]7CC(C)(C)[C@H](O[C@@H]8O[C@H](CO)[C@@H](O)[C@H](O)[C@H]8O)C[C@]7(C)CC[C@]56C)[C@@]4(C)CO)O[C@H](C(=O)O)[C@@H](O)[C@@H]3O)OC[C@@H](O)[C@@H]2O)[C@H](O)[C@H](O)[C@H]1O | 0%
C[C@@H]1O[C@@H](O[C@H]2[C@H](O[C@H]3[C@H](O[C@H]4CC[C@@]5(C)[C@@H](CC[C@]6(C)[C@@H]5CC=C5[C@@H]7CC(C)(C)C[C@@H](O[C@@H]8O[C@H](CO)[C@@H](O)[C@H](O)[C@H]8O)[C@]7(C)CC[C@]56C)[C@@]4(C)CO)O[C@H](C(=O)O)[C@@H](O)[C@@H]3O)O[C@H](CO)[C@H](O)[C@@H]2O)[C@H](O)[C@H](O)[C@H]1O | 0%
C[C@@H]1O[C@@H](O[C@H]2[C@H](O[C@H]3[C@H](O[C@H]4CC[C@@]5(C)[C@@H](CC[C@]6(C)[C@@H]5CC=C5[C@@H]7CC(C)(C)[C@@H](O[C@@H]8OC[C@@H](O)[C@H](O)[C@H]8O)[C@@H](O)[C@]7(C)CC[C@]56C)[C@@]4(C)CO)O[C@H](C(=O)O)[C@@H](O)[C@@H]3O)O[C@H](CO)[C@H](O)[C@@H]2O)[C@H](O)[C@H](O)[C@H]1O | 0%
C[C@@H]1O[C@@H](O[C@H]2[C@H](O[C@H]3[C@H](O[C@H]4CC[C@@]5(C)[C@@H](CC[C@]6(C)[C@@H]5CC=C5[C@@H]7CC(C)(C)C[C@@H](O[C@@H]8O[C@@H](C)[C@H](O)[C@@H](O)[C@H]8O)[C@]7(C)CC[C@]56C)[C@@]4(C)CO)O[C@H](C(=O)O)[C@@H](O)[C@@H]3O)O[C@H](CO)[C@H](O)[C@@H]2O)[C@H](O)[C@H](O)[C@H]1O | 0%
C[C@@H]1O[C@@H](O[C@H]2[C@H](O[C@H]3[C@H](O[C@H]4CC[C@@]5(C)[C@@H](CC[C@]6(C)[C@@H]5CC=C5[C@@H]7CC(C)(C)C[C@@H](O)[C@]7(C)CC[C@]56C)[C@@]4(C)CO)O[C@H](C(=O)O)[C@@H](O)[C@@H]3O)O[C@H](CO)[C@H](O)[C@@H]2O)[C@H](O)[C@H](O)[C@H]1O [SOYASAPONIN I] | 0%
C[C@@H]1O[C@@H](O[C@H]2[C@H](O[C@H]3[C@H](O[C@H]4CC[C@@]5(C)[C@@H](CC[C@]6(C)[C@@H]5CC=C5[C@@H]7CC(C)(C)[C@H](O[C@@H]8O[C@H](CO)[C@@H](O)[C@H](O)[C@H]8O)C[C@]7(C)CC[C@]56C)[C@@]4(C)CO)O[C@H](C(=O)O)[C@@H](O)[C@@H]3O)O[C@H](CO)[C@H](O)[C@@H]2O)[C@H](O)[C@H](O)[C@H]1O | 0%

System: Mus musculus
Test: Hepatoprotective activity against D-GaIN/CCl4 induced liver injury mouse model assessed as reduction in GPT level at 30 microg/kg, iv relative to control
Type: functional
Parameters: scale not given: the % may be the effect or the level left
Details: dose 30 µg/kg

Structure (SMILES) | Activity
CC(C)=CCC[C@](C)(O)[C@H]1CC[C@]2(C)[C@@H]1[C@H](O)C[C@@H]1[C@@]3(C)CC[C@H](O[C@@H]4O[C@H](CO)[C@@H](O)[C@H](O)[C@H]4O[C@@H]4O[C@H](CO)[C@@H](O)[C@H](O)[C@H]4O)C(C)(C)[C@@H]3CC[C@]12C | 63%
CC(C)=CCC[C@@](C)(O)[C@H]1CC[C@]2(C)[C@@H]1[C@H](O)C[C@@H]1[C@@]3(C)CC[C@H](O)C(C)(C)[C@@H]3[C@@H](O[C@@H]3O[C@H](CO)[C@@H](O)[C@H](O)[C@H]3O[C@@H]3O[C@@H](C)[C@H](O)[C@@H](O)[C@H]3O)C[C@]12C | 50%

System: L02
Test: Hepatoprotective activity against D-GaIN-induced toxicity in human HL7702 cells assessed as inhibition of cell survival rate at 10 uM relative to control
Type: functional
Details: not given

Structure (SMILES) | Activity
C[C@@H]1O[C@@H](O[C@H]2[C@H](O[C@H]3[C@H](O[C@H]4CC[C@]5(C)[C@H]6CC=C7[C@@H]8CC(C)(C)CC[C@]8(C(=O)O)CC[C@@]7(C)[C@]6(C)CC[C@H]5C4(C)C)O[C@H](C(=O)O)[C@@H](O)[C@@H]3O)O[C@H](CO)[C@@H](O)[C@@H]2O)[C@H](O)[C@H](O)[C@H]1O | 56.8%
COC(=O)c1cc(OC)c2c(c1-c1c(CO)cc(OC)c3c1OCO3)OCO2 [BICYCLOL] | 26.2%
CCOC(=O)[C@H]1O[C@@H](O[C@H]2CC[C@]3(C)[C@H]4CC=C5[C@@H]6CC(C)(C)CC[C@]6(C(=O)O)CC[C@@]5(C)[C@]4(C)CC[C@H]3C2(C)C)[C@H](O[C@@H]2O[C@H](CO)[C@@H](O)[C@H](O)[C@H]2O[C@@H]2OC[C@@H](O)[C@H](O)[C@H]2O)[C@@H](O)[C@@H]1O | 44.8%
CC1(C)C[C@H]2C3=CC[C@@H]4[C@@]5(C)C=CC(=O)C(C)(C)[C@@H]5CC[C@@]4(C)[C@]3(C)CC[C@@]2(C(=O)O)C[C@@H]1O | 76.8%
CC1(C)CC[C@]2(C(=O)O)CC[C@]3(C)C(=CC[C@@H]4[C@@]5(C)CC[C@H](O)[C@@](C)(CO)[C@@H]5CC[C@]43C)[C@@H]2C1 [HEDERAGENIN] | 62.4%
C=C(C)[C@@H]1CC[C@]2(C(=O)O[C@@H]3O[C@H](C(=O)OCC)[C@@H](O)[C@H](O)[C@H]3O[C@@H]3OC[C@@H](O)[C@H](O)[C@H]3O)CC[C@]3(C)[C@H](CC[C@@H]4[C@@]5(C)CC[C@H](O)C(C)(C)[C@@H]5CC[C@]43C)[C@@H]12 | 48.3%
C=C(C)[C@@H]1CC[C@]2(C(=O)O)CC[C@]3(C)[C@H](CC[C@@H]4[C@@]5(C)CC[C@H](O[C@@H]6O[C@H](C(=O)OCC)[C@@H](O)[C@H](O)[C@H]6O[C@@H]6OC[C@@H](O)[C@H](O)[C@H]6O)C(C)(C)[C@@H]5CC[C@]43C)[C@@H]12 | 32.8%
CCCCOC(=O)[C@H]1O[C@@H](O[C@H]2CC[C@]3(C)[C@H]4CC=C5[C@@H]6CC(C)(C)CC[C@]6(C(=O)O[C@@H]6O[C@H](CO)[C@@H](O)[C@H](O)[C@H]6O)CC[C@@]5(C)[C@]4(C)CC[C@H]3C2(C)C)[C@H](O[C@@H]2O[C@H](CO)[C@@H](O)[C@H](O)[C@H]2O)[C@@H](O)[C@@H]1O[C@@H]1OC[C@H](O)[C@H](O)[C@H]1O | 48.3%
CCOC(=O)[C@H]1O[C@@H](O[C@H]2CC[C@]3(C)[C@H]4CC=C5[C@@H]6CC(C)(C)CC[C@]6(C(=O)O[C@@H]6O[C@H](CO)[C@@H](O)[C@H](O)[C@H]6O[C@@H]6O[C@H](COC(C)=O)[C@@H](O)[C@H](O)[C@H]6O)CC[C@@]5(C)[C@]4(C)CC[C@H]3C2(C)C)[C@H](O[C@@H]2O[C@H](CO)[C@@H](O)[C@H](O)[C@H]2O[C@@H]2O[C@@H](C)[C@H](O)[C@@H](O)[C@H]2O)[C@@H](O)[C@@H]1O | 75.7%
C[C@@H]1O[C@@H](O[C@H]2[C@H](O[C@H]3[C@H](O[C@H]4CC[C@]5(C)[C@H]6CC=C7[C@@H]8CC(C)(C)CC[C@]8(C(=O)O[C@@H]8O[C@H](CO)[C@@H](O)[C@H](O)[C@H]8O)CC[C@@]7(C)[C@]6(C)CC[C@H]5C4(C)C)O[C@H](C(=O)O)[C@@H](O)[C@@H]3O)O[C@H](CO)[C@@H](O)[C@@H]2O)[C@H](O)[C@H](O)[C@H]1O | 87.3%
CCCCOC(=O)[C@H]1O[C@@H](O[C@H]2CC[C@]3(C)[C@H]4CC=C5[C@@H]6[C@@H](C)[C@H](C)CC[C@]6(C(=O)O[C@@H]6O[C@H](CO)[C@@H](O[C@@H]7O[C@@H](C)[C@H](O)[C@@H](O)[C@H]7O)[C@H](O)[C@H]6O)CC[C@@]5(C)[C@]4(C)CC[C@H]3C2(C)C)[C@H](O[C@@H]2O[C@H](CO)[C@@H](O)[C@H](O)[C@H]2O[C@@H]2O[C@@H](C)[C@H](O)[C@@H](O)[C@H]2O)[C@@H](O)[C@@H]1O | 32.2%
CCCCOC(=O)[C@H]1O[C@@H](O[C@H]2CC[C@]3(C)[C@H]4CC=C5[C@@H]6CC(C)(C)CC[C@]6(C(=O)O[C@@H]6O[C@H](CO)[C@@H](O)[C@H](O)[C@H]6O[C@@H]6OC[C@@H](O)[C@H](O)[C@H]6O)CC[C@@]5(C)[C@]4(C)CC[C@H]3C2(C)C)[C@H](O[C@@H]2O[C@H](CO)[C@@H](O)[C@H](O)[C@H]2O[C@@H]2O[C@@H](C)[C@H](O)[C@@H](O)[C@H]2O)[C@@H](O)[C@@H]1O | 54.7%
CCOC(=O)[C@H]1O[C@@H](O[C@H]2CC[C@]3(C)[C@H]4CC=C5[C@@H]6CC(C)(C)CC[C@]6(C(=O)O[C@@H]6O[C@H](CO)[C@@H](O[C@@H]7O[C@@H](C)[C@H](O)[C@@H](O)[C@H]7O)[C@H](O)[C@H]6O)CC[C@@]5(C)[C@]4(C)CC[C@H]3C2(C)C)[C@H](O[C@@H]2O[C@H](CO)[C@@H](O)[C@H](O)[C@H]2O[C@@H]2O[C@@H](C)[C@H](O)[C@@H](O)[C@H]2O)[C@@H](O)[C@@H]1O | 81.4%
